Data taken from patent US20210395256A1, “TYROSINE KINASE INHIBITORS, COMPOSITIONS AND METHODS THERE OF” (Betta Pharmaceuticals Co., Ltd., priority 2018, published 2021).

What follows are compounds tested against TrkA kinase (Homo sapiens, UniProt P04629) (assay: TrkA kinase assay (mobility shift assay)). Settings: class symbols; read-out: Trk A Kinase IC50.
Assay type: biochemical
Procedure: Example 201 TrkA Kinase Assay
Mobility shift assay was used to determine the inhibitory activity of compounds against TrkA kinase. Assay procedures are as follows:
1× Kinase base buffer (50 mM HEPES, pH 7.5; 0.0015% Brij-35)
Stop buffer (100 mM HEPES, pH 7.5; 0.015% Brij-35; 0.2% Coating Reagent #3; 50 mM EDTA)
1) Dilute the compound to 50× of the final desired highest inhibitor concentration in reaction by 100% DMSO. Transfer 100 μl of this compound dilution to a well in a 96-well plate.
2) For all compounds, transfer the compound in tubes to one well on 96-well storage plate and serially dilute the compound by transferring 30 μl to 60 μl of 100% DMSO in the next well and so forth for a total of 10 concentrations.
3) Add 100 μl of 100% DMSO to two empty wells for no compound control and no enzyme control in the same 96-well plate. Mark the plate as source plate.
4) Prepare intermediate plate
Transfer 10 μl of compound from source plate to a new 96-well plate as the intermediate plate
Add 90 µl of 1× kinase buffer to each well of the intermediate plate.
Mix the compounds in intermediate plate for 10 min on shaker.
1) Transfer 5 μl of each well from the 96-well intermediate plate to a 384-well plate in duplicates. For example, A1 of the 96-well plate is transferred to A1 and A2 of the 384-well plate. A2 of the 96-well plate is transferred to A3 and A4 of the 384-well plate, and so on.
1) Prepare 2.5× enzyme solution
Add kinase in 1× kinase base buffer.
2) Prepare 2.5× peptide solution Add FAM-labeled peptide and ATP in the 1× kinase base buffer.
3) Assay plate already contains 5 μl of compound in 10% DMSO.
4) Transfer 2.5× enzyme solution to the assay plate
Add 10 μl of 2.5× enzyme solution to each well of the 384-well assay plate.
5) Incubate at room temperature for 10 min.
6) Transfer 2.5× peptide solution to the assay plate
Add 10 μl of 2.5× peptide solution to each well of the 384-well assay plate.
Kinase reaction conditions are shown as Table 11:
7) Kinase reaction and stop
Incubate at 28° C. for specified period of time.
Add 25 μl of stop buffer to stop reaction.
1) Copy conversion data from Caliper program.
2) Convert conversion values to inhibition values.
Percent inhibition=(max-conversion)/(max-min)*100.
“max” stands for DMSO control; “min” stands for low control.
3) Fit the data in XLFit excel add-in version 5.4.0.8 to obtain IC50 values.
Equation used is: Y=Bottom+(Top-Bottom)/(1+(IC50/X)^HillSlope)

Chain of TrkA kinase (P04629 33-796): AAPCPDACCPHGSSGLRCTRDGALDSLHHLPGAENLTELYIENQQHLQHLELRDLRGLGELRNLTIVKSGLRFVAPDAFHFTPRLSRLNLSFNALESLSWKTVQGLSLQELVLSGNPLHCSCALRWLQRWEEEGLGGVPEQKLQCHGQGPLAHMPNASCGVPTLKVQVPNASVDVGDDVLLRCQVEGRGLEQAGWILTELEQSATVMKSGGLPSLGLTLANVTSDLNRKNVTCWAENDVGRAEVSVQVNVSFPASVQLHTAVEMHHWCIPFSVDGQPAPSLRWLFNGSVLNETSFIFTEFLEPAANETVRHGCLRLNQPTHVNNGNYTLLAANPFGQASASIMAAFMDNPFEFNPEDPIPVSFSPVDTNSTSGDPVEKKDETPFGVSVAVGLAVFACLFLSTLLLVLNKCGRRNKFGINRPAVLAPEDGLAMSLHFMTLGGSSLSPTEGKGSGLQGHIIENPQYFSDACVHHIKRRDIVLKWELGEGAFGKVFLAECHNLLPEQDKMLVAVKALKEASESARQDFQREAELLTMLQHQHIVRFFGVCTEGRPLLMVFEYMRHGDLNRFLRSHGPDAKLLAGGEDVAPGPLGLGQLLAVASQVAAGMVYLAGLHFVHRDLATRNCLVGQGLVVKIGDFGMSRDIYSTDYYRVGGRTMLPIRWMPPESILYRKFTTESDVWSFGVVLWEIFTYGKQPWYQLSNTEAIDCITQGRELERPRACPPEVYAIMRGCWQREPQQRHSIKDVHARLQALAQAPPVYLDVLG

SMILES	IC50
Fc1ccc(F)c([C@H]2CCCN2c2ccn3ncc(-c4nc5cc(O[C@@H]6CCOC6)c(O[C@H]6CCOC6)cc5[nH]4)c3n2)c1 [Compound 118, 5-((R)-2-(2,5-difluorophenyl)pyrrolidin-1-yl)-3-(5-(((R)-tetrahydrofuran-3-yl)oxy)-6-(((S)-tetrahydrofuran-3-yl)oxy)-1H-benzo[d]imidazol-2-yl)pyrazolo[1,5-a]pyrimidine]	10 to 50 nM
C[C@](O)(c1nnc(-c2cnn3ccc(N4CCC[C@@H]4c4cc(F)ccc4F)nc23)[nH]1)C(F)(F)F [Compound 25, (S)-2-(5-(5-((R)-2-(2,5-difluorophenyl)pyrrolidin-1-yl)pyrazolo[1,5-a]pyrimidin-3-yl)-4H-1,2,4-triazol-3-yl)-1,1,1-trifluoropropan-2-ol]	10 to 50 nM
Fc1ccc(F)c([C@H]2CCCN2c2ccn3ncc(-c4nc5cc6c(cc5o4)OCO6)c3n2)c1 [Compound 131, (R)-6-(5-(2-(2,5-difluorophenyl)pyrrolidin-1-yl)pyrazolo[1,5-a]pyrimidin-3-yl)-[1,3]dioxolo[4′,5′:4,5]benzo[1,2-d]oxazole]	10 to 50 nM
OC1CCc2nc(-c3cnn4ccc(N5CCC[C@@H]5c5cc(F)ccc5F)nc34)nn2C1 (stereo partly drawn) [Compound 132, 2-(5-((R)-2-(2,5-difluorophenyl)pyrrolidin-1-yl)pyrazolo[1,5-a]pyrimidin-3-yl)-5,6,7,8-tetrahydro-[1,2,4]triazolo[1,5-a]pyridin-6-ol]	10 to 50 nM
Cn1c(-c2cnn3ccc(N4CCC[C@@H]4c4cc(F)ccc4F)nc23)nc2cnccc21 [Compound 124, (R)-2-(5-(2-(2,5-difluorophenyl)pyrrolidin-1-yl)pyrazolo[1,5-a]pyrimidin-3-yl)-1-methyl-1H-imidazo[4,5-c]pyridine]	10 to 50 nM
Cc1cc2nc(-c3cnn4ccc(N5CCC[C@@H]5c5cc(F)ccc5F)nc34)oc2cc1OC(F)F [Compound 179, (R)-6-(difluoromethoxy)-2-(5-(2-(2,5-difluorophenyl)pyrrolidin-1-yl)pyrazolo[1,5-a]pyrimidin-3-yl)-5-methylbenzo[d]oxazole]	10 to 50 nM
Fc1ccc(F)c([C@H]2CCCN2c2ccn3ncc(-c4nnc(C5CCN5)[nH]4)c3n2)c1 (stereo partly drawn) [Compound 15, 3-(5-(azetidin-2-yl)-4H-1,2,4-triazol-3-yl)-5-((R)-2-(2,5-difluorophenyl)pyrrolidin-1-yl)pyrazolo[1,5-a]pyrimidine]	> 50 nM
COc1cc2nc(-c3cnn4ccc(N5CCC[C@@H]5c5cc(F)ccc5F)nc34)[nH]c2cc1C(C)O (stereo partly drawn) [Compound 66, 1-(2-(5-((R)-2-(2,5-difluorophenyl)pyrrolidin-1-yl)pyrazolo[1,5-a]pyrimidin-3-yl)-5-methoxy-1H-benzo[d]imidazol-6-yl)ethan-1-ol]	≤ 10 nM
N#Cc1cc2nc(-c3cnn4ccc(N5CCC[C@@H]5c5cc(F)ccc5F)nc34)oc2cc1OC(F)(F)F [Compound 176, (R)-2-(5-(2-(2,5-difluorophenyl)pyrrolidin-1-yl)pyrazolo[1,5-a]pyrimidin-3-yl)-6-(trifluoromethoxy)benzo[d]oxazole-5-carbonitrile]	10 to 50 nM
Fc1ccc(F)c([C@H]2CCCN2c2ccn3ncc(-c4nnc(C5CCOC5)[nH]4)c3n2)c1 (stereo partly drawn) [Compound 3, 5-((R)-2-(2,5-difluorophenyl)pyrrolidin-1-yl)-3-(5-(tetrahydrofuran-3-yl)-4H-1,2,4-triazol-3-yl)pyrazolo[1,5-a]pyrimidine]	10 to 50 nM
Fc1ccc(F)c([C@H]2CCCN2c2ccn3ncc(-c4nc5cc6nc7ccccc7nc6cc5[nH]4)c3n2)c1 [Compound 130, (R)-2-(5-(2-(2,5-difluorophenyl)pyrrolidin-1-yl)pyrazolo[1,5-a]pyrimidin-3-yl)-1H-imidazo[4,5-b]phenazine]	> 50 nM

Other lines, results leading:

IC50	SMILES
≤ 10 nM	CN(C)CCN(C)c1cc2[nH]c(-c3cnn4ccc(N5CCC[C@@H]5c5cc(F)ccc5F)nc34)nc2cc1C#N [Compound 168, (R)-2-(5-(2-(2,5-difluorophenyl)pyrrolidin-1-yl)pyrazolo[1,5-a]pyrimidin-3-yl)-6-((2-(dimethylamino)ethyl)(methyl)amino)-1H-benzo[d]imidazole-5-carbonitrile]
≤ 10 nM	N#Cc1cc2nc(-c3cnn4ccc(N5CCC[C@@H]5c5cc(F)ccc5F)nc34)[nH]c2cc1N1CC(O)C1 [Compound 145, (R)-2-(5-(2-(2,5-difluorophenyl)pyrrolidin-1-yl)pyrazolo[1,5-a]pyrimidin-3-yl)-6-(3-hydroxyazetidin-1-yl)-1H-benzo[d]imidazole-5-carbonitrile]
≤ 10 nM	OCc1cc2nc(-c3cnn4ccc(N5CCC[C@@H]5c5cc(F)ccc5F)nc34)[nH]c2cn1 [Compound 135, (R)-(2-(5-(2-(2,5-difluorophenyl)pyrrolidin-1-yl)pyrazolo[1,5-a]pyrimidin-3-yl)-3H-imidazo[4,5-c]pyridin-6-yl)methanol]
≤ 10 nM	COc1cc2oc(-c3cnn4ccc(N5CCC[C@@H]5c5cc(F)ccc5F)nc34)nc2cc1C#N [Compound 174, (R)-2-(5-(2-(2,5-difluorophenyl)pyrrolidin-1-yl)pyrazolo[1,5-a]pyrimidin-3-yl)-6-methoxybenzo[d]oxazole-5-carbonitrile]
≤ 10 nM	COC(=O)c1ccc2[nH]c(-c3cnn4ccc(N5CCC[C@@H]5c5cc(F)ccc5F)nc34)cc2c1 [Compound 184, methyl (R)-2-(5-(2-(2,5-difluorophenyl)pyrrolidin-1-yl)pyrazolo[1,5-a]pyrimidin-3-yl)-1H-indole-5-carboxylate]
≤ 10 nM	N#Cc1cc2nc(-c3cnn4ccc(N5CCC[C@@H]5c5cc(F)ccc5F)nc34)[nH]c2cc1N1CC[C@H](O)C1 [Compound 164, 2-(5-((R)-2-(2,5-difluorophenyl)pyrrolidin-1-yl)pyrazolo[1,5-a]pyrimidin-3-yl)-6-((S)-3-hydroxypyrrolidin-1-yl)-1H-benzo[d]imidazole-5-carbonitrile]
≤ 10 nM	Fc1ccc(F)c([C@H]2CCCN2c2ccn3ncc(-c4nnc(-c5ccc6cn[nH]c6c5)[nH]4)c3n2)c1 [Compound 59, (R)-3-(5-(1H-indazol-6-yl)-4H-1,2,4-triazol-3-yl)-5-(2-(2,5-difluorophenyl)pyrrolidin-1-yl)pyrazolo[1,5-a]pyrimidine]
≤ 10 nM	Fc1ccc(F)c([C@H]2CCCN2c2ccn3ncc(-c4nc5nccnc5[nH]4)c3n2)c1 [Compound 128, (R)-2-(5-(2-(2,5-difluorophenyl)pyrrolidin-1-yl)pyrazolo[1,5-a]pyrimidin-3-yl)-1H-imidazo[4,5-b]pyrazine]

Same assay, conditions: numeric values; read-out: Trk A Kinase IC50

IC50	SMILES
1.57 nM	OC12CC3CC(C1)CC(c1nnc(-c4cnn5ccc(N6CCC[C@@H]6c6cc(F)ccc6F)nc45)[nH]1)(C3)C2 [Compound 37, (1R,3r)-3-(5-(5-((R)-2-(2,5-difluorophenyl)pyrrolidin-1-yl)pyrazolo[1,5-a]pyrimidin-3-yl)-4H-1,2,4-triazol-3-yl)adamantan-1-ol]
6.6 nM	O[C@H]1CCn2nc(-c3cnn4ccc(N5CCC[C@@H]5c5cc(F)ccc5F)nc34)nc2C1 [Compound 187, (S)-2-(5-((R)-2-(2,5-difluorophenyl)pyrrolidin-1-yl)pyrazolo[1,5-a]pyrimidin-3-yl)-5,6,7,8-tetrahydro-[1,2,4]triazolo[1,5-a]pyridin-7-ol]
2.65 nM	Fc1ccc(F)c([C@H]2CCCN2c2ccn3ncc(-c4nnc(-c5ccc6[nH]ccc6c5)[nH]4)c3n2)c1 [Compound 50, (R)-3-(5-(1H-indol-5-yl)-4H-1,2,4-triazol-3-yl)-5-(2-(2,5-difluorophenyl)pyrrolidin-1-yl)pyrazolo[1,5-a]pyrimidine]
0.73 nM	COc1cc2nc(-c3cnn4ccc(N5CCC[C@@H]5c5cc(F)ccc5F)nc34)[nH]c2cc1OC [Compound 78, (R)-5-(2-(2,5-difluorophenyl)pyrrolidin-1-yl)-3-(5,6-dimethoxy-1H-benzo[d]imidazol-2-yl)pyrazolo[1,5-a]pyrimidine]
1.1 nM	Fc1ccc(F)c([C@H]2CCCN2c2ccn3ncc(-c4nc5cc6c(cc5[nH]4)OCCCO6)c3n2)c1 [Compound 134, (R)-2-(5-(2-(2,5-difluorophenyl)pyrrolidin-1-yl)pyrazolo[1,5-a]pyrimidin-3-yl)-7,8-dihydro-1H,6H-[1,4]dioxepino[2′,3′:4,5]benzo[1,2-d]imidazole]
3.9 nM	O[C@H](c1ccccc1)c1nnc(-c2cnn3ccc(N4CCC[C@@H]4c4cc(F)ccc4F)nc23)[nH]1 [Compound 42, (R)-(5-(5-((R)-2-(2,5-difluorophenyl)pyrrolidin-1-yl)pyrazolo[1,5-a]pyrimidin-3-yl)-4H-1,2,4-triazol-3-yl)(phenyl)methanol]
